The source of these data is patent publication US7094869B2, “Low molecular weight peptidomimetic growth hormone secretagogues” (Genentech, Inc., priority 1994, dated 2006).

Assay [1] deals with rat pituitary cells (Rattus norvegicus, UniProt O08725). Nature of the assay: Rat “pit” cell challenges: combinations with GHRP-6/GHRH, desensitization, somatostatin suppression, GHRP antagonist. The class given is cell-based.
Description: Dispersion: Adult female Sprague-Dawley (160-180 g., Charles River) rats were group-caged in a 12:12 light:dark cycle with food and water available ad libitum. Pituitaries from ten rats were removed, the posterior pituitary discarded and the anterior pituitary placed in Hanks' Balanced Salt Solution (HBSS: without calcium chloride, w/o magnesium chloride, w/o magnesium sulfate; Gibco) containing 20 mM HEPES (Gibco) and 100 U/ml penicillin streptomycin (PS: JRH Biosciences). Under sterile conditions, pituitaries were rinsed twice then minced into small fragments with a razor blade. Fragments were resuspended in 5 ml of HBSS/HEPES containing 20 mg collagenase (Serva 17449) and 200 ml of 1 mg/ml DNase (Sigma) for a 40 min. incubation in a 37° C. gyrotory water bath shaker (New Brunswick Scientific Model G76; setting 10). After the incubation, fragments were triturated to yield small clumps and single cells. The cells were centrifuged 1000× g for 5 min, resuspended, counted and plated at a final cell concentration of 100,000 cells/ml. Incubation media was DME low glucose media w/NaHCO3 (Gibco) containing 20 mM hepes, 100 U/ml PS and 10% FBS (Hyclone A-111-L). Cells were plated at 0.5 ml per well in 48 well plates (Falcon) and incubated at 37° C. in 5% C02 for three days. […] The highest concentration of DMSO in media was 0.1%. Stock solutions (1 mM) of rat GHRH, somatostatin (Sigma) and GHRP antagonist HwkWfK were made fresh in media and diluted appropriately. The media used in all challenges and washing steps was DME low glucose with 20 mM Hepes, 100 U/ml PS, 10% FBS. Media was warmed to 37° C. and gassed by placing it into the incubator prior to challenge. On day three, the media was discarded and fresh media (approximately 1 ml) added for the first of three washes. After the last wash, the plate was placed back in the incubator for a 15 min pre-incubation. Then cells were washed 2× (with warmed and gassed media) and fresh 0.5 ml media were added for the second 15 min. pre-incubation. After the second pre-incubation cells were washed 2× as above and 0.5 ml of control and test solutions were added for a final 15 min incubation. After this incubation, the media were removed for subsequent GH ELISA. GH ELISA: A two-site ELISA was used to determine rat GH concentration in the media. Briefly, goat anti-rat GH antibody (lot#19164-20) was used to coat Nunc immunoplates overnight. After blocking and washing, standard (rat GH reference preparation: Parlow) and challenge media is diluted 1:20 prior to GH assay were added for a 1 hr room temperature incubation. STATISTICS: The mean for each group was determined and analyzed by one-way analysis of variance with a post-hoc Student-Newman-Keuls. Significance is defined as P<0.05. The EC50 was calculated using a 4-parameter curve-fit program (Kaleidagraph). Three to four independent EC50s were used to derive the mean and SEM.
The nature of assay [2]: GHRP induced dose dependent weight gain in rats (sc minipump infusion, 14 days). The class given is in vivo, rat. How it is done:
Rat GHRH (1-43) was dissolved in the same buffer at 25 g/l.
The next day these osmotic pumps were inserted into rats.
Serum chemistries were measured by standard automated procedures.

In assay [3] the test system is FSH. Briefly: FSH release from pituitary cells (RIA). The following applies: 100 nM; listed as (inip)-bbFK-NH2. The class given is cell-based, rat. The protocol: Dispersion: Adult female Sprague-Dawley (160-180 g., Charles River) rats were group-caged in a 12:12 light:dark cycle with food and water available ad libitum. Pituitaries from ten rats were removed, the posterior pituitary discarded and the anterior pituitary placed in Hanks' Balanced Salt Solution (HBSS: without calcium chloride, w/o magnesium chloride, w/o magnesium sulfate; Gibco) containing 20 mM HEPES (Gibco) and 100 U/ml penicillin streptomycin (PS: JRH Biosciences). Under sterile conditions, pituitaries were rinsed twice then minced into small fragments with a razor blade. Fragments were resuspended in 5 ml of HBSS/HEPES containing 20 mg collagenase (Serva 17449) and […] of 1 mg/ml DNase (Sigma) for a 40 min. incubation in a 37° C. gyrotory water bath shaker (New Brunswick Scientific Model G76; setting 10). […] The cells were centrifuged 1000× g for 5 min, resuspended, counted and plated at a final cell concentration of 100,000 cells/ml. […] STATISTICS: The mean for each group was determined and analyzed by one-way analysis of variance with a post-hoc Student-Newman-Keuls. […] The EC50 was calculated using a 4-parameter curve-fit program (Kaleidagraph). […] RIA of pituitary hormones: LH, FSH, TSH, and Prolactin were determined with commercially available kits from Amersham, and ACTH levels were determined by a RIA kit from ICN. […]

The test system of assay [4] is ACTH. Briefly: ACTH release from pituitary cells (RIA). The class given is cell-based, rat. The following applies: 100 nM. The protocol:
Dispersion: Adult female Sprague-Dawley (160-180 g., Charles River) rats were group-caged in a 12:12 light:dark cycle with food and water available ad libitum. Pituitaries from ten rats were removed, the posterior pituitary discarded and the anterior pituitary placed in Hanks' Balanced Salt Solution (HBSS: without calcium chloride, w/o magnesium chloride, w/o magnesium sulfate; Gibco) containing 20 mM HEPES (Gibco) and 100 U/ml penicillin streptomycin (PS: JRH Biosciences). Under sterile conditions, pituitaries were rinsed twice then minced into small fragments with a razor blade. Fragments were resuspended in 5 ml of HBSS/HEPES containing 20 mg collagenase (Serva 17449) and […] of 1 mg/ml DNase (Sigma) for a 40 min. incubation in a 37° C. gyrotory water bath shaker (New Brunswick Scientific Model G76; setting 10). After the incubation, fragments were triturated to yield small clumps and single cells. The cells were centrifuged 1000× g for 5 min, resuspended, counted and plated at a final cell concentration of 100,000 cells/ml. Incubation media was DME low glucose media w/NaHCO3 (Gibco) containing 20 mM hepes, 100 U/ml PS and 10% FBS (Hyclone A-111-L). Cells were plated at 0.5 ml per well in 48 well plates (Falcon) and incubated at 37° C. in 5% C02 for three days. For challenges to determine release of other pituitary hormones cells were plated at 200,000 cells per ml with 2 ml per well of a Swell plate (Corning). Challenge: A (inip)bbFK-NH2 stock (or other GHRP) concentration of 1 mM was made in DMSO and diluted with warmed media approximately 30 min prior to use. The highest concentration of DMSO in media was 0.1%. […] STATISTICS: The mean for each group was determined and analyzed by one-way analysis of variance with a post-hoc Student-Newman-Keuls. […] The EC50 was calculated using a 4-parameter curve-fit program (Kaleidagraph). […] RIA of pituitary hormones: LH, FSH, TSH, and Prolactin were determined with commercially available kits from Amersham, and ACTH levels were determined by a RIA kit from ICN. […]

Where [5] appears, read: high dose (inip) b b F K-NH2 100 μg/day, GHRH 600 μg/day, 14 d infusion.

Entries after “also recorded” stand apart in the source; their conditions may differ.

rat pituitary cells, sequence (O08725 whole entry, the tested form may be a part): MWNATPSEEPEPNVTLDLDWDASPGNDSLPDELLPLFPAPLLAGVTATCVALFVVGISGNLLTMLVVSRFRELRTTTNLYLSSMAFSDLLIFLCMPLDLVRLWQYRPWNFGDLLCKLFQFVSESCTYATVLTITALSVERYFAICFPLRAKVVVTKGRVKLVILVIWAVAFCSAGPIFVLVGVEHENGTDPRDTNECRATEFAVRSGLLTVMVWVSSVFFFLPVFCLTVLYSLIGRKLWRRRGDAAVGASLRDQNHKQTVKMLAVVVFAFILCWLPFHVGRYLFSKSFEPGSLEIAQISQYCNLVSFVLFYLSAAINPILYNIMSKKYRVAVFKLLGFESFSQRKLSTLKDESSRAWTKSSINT

With `NCCCC[C@H](NC(=O)[C@H](Cc1ccccc1)NC(=O)[C@@H](Cc1ccc2ccccc2c1)NC(=O)[C@@H](Cc1ccc2ccccc2c1)NC(=O)C1CCNCC1)C(N)=O` [(inip) b b F K amide, (inip)-DβNal-DβNal-Phe-Lys-amide], the “increase in GH levels over control” value in assay [1] (100 nM) is on record as 3 fold. In addition, the “GH release in combination with GHRH” value in assay [1] (GHRP 100 nM plus GHRH 10 or 100 nM, listed as (inip)-bbFK-NH2) was “show synergy with 10 nM GHRH; also recorded: showed synergy with GHRH”. Moreover, in assay [1] (both at 100 nM, listed as (inip)-bbFK-NH2), the “GH release in combination with GHRP-6” value is “no additional or synergistic increase was observed; also recorded: no additional increase was observed”. Moreover, the “GH release in the presence of 20 nM somatostatin” value in assay [1] (coincubation with 20 nM somatostatin, listed as (inip)-bbFK-NH2) was “suppressed this enhanced release”. In assay [1] (three sequential 15 min incubations, 100 nM), the “GH release after sequential 15 min incubations with fresh compound (desensitization)” value is “no significant GH release compared to control”. For the same molecule, in assay [2] (14 d infusion), the epiphyseal plate width result was “no statistically significant increase”. Besides, the “pituitary and kidney weight” value in assay [2] (14 d infusion) was “not affected”. Further, the “heart weight compared to excipient” value in assay [2] (high dose 100 μg/day, GHRH 600 μg/day) is reported as “tended to be increased”. The liver weight in assay [2] (high dose (100 μg/day), 14 d infusion) worked out at 10.14 ± 0.29 g; in assay [2] (low dose (4 μg/day), 14 d infusion), 9.40 ± 0.37 g; in assay [2] (medium dose (20 μg/day), 14 d infusion) it was 9.70 ± 0.29 g. In assay [2] (setting [5]), this molecule showed a spleen weight of 628 ± 26 mg. This molecule also came in with a thymus weight in assay [2] (setting [5]) of 584 ± 34 mg. Moreover, the “body weight gain compared to excipient” value in assay [2] (sc minipump 14 days, (inip) b b F K-NH2 4, 20, 100 μg/d, GHRH 600 μg/d, 90 day old female rats) is “dose-related weight gain; also recorded: significant body weight and organ weight gain”. The FSH release entry in assay [3] is “had no effect on these hormone concentrations; also recorded: unchanged”. The ACTH release result in assay [4] (listed as (inip)-bbFK-NH2) is given as “unchanged”; in assay [4] (listed as (inip)bbFK-NH2) it was “no significant change”.
